From PMC7616463, “Peptidic boronic acid Plasmodium falciparum SUB1 inhibitors with improved selectivity over human proteasome” (Journal of medicinal chemistry, 2024) come the findings set out here.

In series [1] the target is T1, recombinant PfSUB1 (rPfSUB1) (Plasmodium falciparum, UniProt Q8I0V0).
T1 construct: made in house
Description: PfSUB1 enzyme assay (recombinant PfSUB1, fluorogenic peptide substrate). Format: biochemical. Conditions: for IC50: rPfSUB1, substrate SERA4st1F-6R12 0.1 μM, 5 min preincubation, pH 8.2, fluorescence, duplicate, read-out: IC50, nM PfSUB1 inhibition. As to the method:
The proteolytic activity of rPfSUB1 was monitored by the cleavage of the fluorogenic peptidic substrate SERA4st1F-6R12 (Ac-[…]-OH) and has been described previously.[28] Briefly, chymotrypsin treated rPfSUB1 (expressed and purified as described before […] was stored at −80 °C as a 228 U/mL stock in 20 mM Tris−HCl pH 8.2, 150 mM NaCl, 10% glycerol, and diluted for use (1:500) in reaction buffer (20 mM Tris−HCl pH 8.2, 150 mM NaCl, 12 mM CaCl2, 25 mM CHAPS). Peptidic boronic acid inhibitors were dissolved in 100% DMSO at 20 mM, then further diluted in DMSO to generate stock solutions ranging from 500 to 0.01 μM and then used diluted 1:100 in the enzyme reactions. All reactions were performed in wells of white 96-well microwell plates (Nunc); 50 μL diluted rPfSUB1 was preincubated for 5 min with 1 μL each of the serially diluted boronic acid inhibitors, followed by addition of 50 μL substrate solution (0.1 μM final). Subsequent fluorescence increase was continuously monitored using a SpectraMax M5e plate reader and SoftMax Pro-6.3 software, with readings taken every 3 min for 60 min using excitation and emission values of 552 and 580 nm, respectively. […] All experiments were performed in duplicate.

The target in series [2] is T2, human 20S proteasome (H20S), chymotrypsin-like β5 activity (Homo sapiens, UniProt P20618+P28074).
T2 construct: variant as stated: H20S
Briefly: Human 20S proteasome kinetic assay (chymotrypsin-like β5 activity). Format: biochemical. Conditions: purified human 20S proteasome, β5 activity, substrate LLVY-R110, fluorescence; duplicate; read-out: IC50, nM H20S inhibition. How it is done:
The fluorescent Proteasome substrate LLVY-R110 (ex: 490 nm, Em:525 nm) (#MAK172, Sigma-Aldrich) was used to measure the chymotrypsin-like activity (β5) of the human 20S proteasome and was prepared according to the activity assay kit instructions. Cleavage of this peptide generated intense green fluorescence due to the R110 group and was monitored at 520-530 nm with excitation at 480-500 nm. The purified human 20S proteasome (BML-PW8720-0050, EnzoSciences), stored at 1mg/ml in 20 mM Tris-HCl pH 7.2, 1mM EDTA, 1mM DTT 1mM NaN3, 50% glycerol was diluted in TRIS-buffered saline (TBS, pH 7.4) to an intermediate concentration of 0.44 μM. […] The reactions were performed in white 96-well fluorescent microtiter-plate format (Nunc). The Substrate solution was added first (100 μl), followed by 1 μl of the inhibitor (50 μM intermediate stock) and 1 μl of the H20S proteasome at 0.44 μM. The IC50s were determined for a selection of potent PfSUB1 inhibitors. After sequential dilution of the inhibitors in 100% DMSO, 1 μl of each dilution was used in a 100 μl reaction containing the fluorescent substrate. The reaction was initiated by the addition of 1 μl of the 20S proteasome intermediate stock solution. The fluorescence increase was monitored using a SpectraMax M5e plate reader and SoftMax Pro-6.3 software Measure activity on a plate reader (ex: 490 nm, Em: 525 nm) with the photomultiplier tube (PMT) set to medium with readings every 3 min for one hour. All measurements were done in duplicate. The progress curves were plotted within GraphPad Prism 9.5.0.

The subject of the next series is P. falciparum line B11. Briefly: Parasite growth assay, wild-type B11 line. Format: cell-based. Conditions: Plasmodium falciparum, 96 h, read-out: EC50 parasite growth, B11 line. An excerpt: The DiCre-expressing P. falciparum line B11 (derived from a 3D7 background) has been described in full previously.[45] […] Briefly, the B11 line was first modified by the incorporation into the genomic Pfs47 locus of a cassette for constitutive expression of a TetR-DOZI fusion protein. The 3’ flanking region of the SUB1 gene was then modified by incorporation of 10 Tet repressor-binding aptamers, following by limiting dilution cloning to obtain a genetically homogenous line called 1AC5. […] Complete details of the characterization of this parasite line will be provided in a separate manuscript.
(§1) The effects of test compounds on in vitro growth of the B11 and 1AC5 P. falciparum lines was determined by flow cytometry as described previously.[48] Briefly, synchronous ring-stage parasites at 0.1% parasitaemia and 2% haematocrit were dispensed into flat-bottomed 96-well culture plates (200 ul per well) each containing 1 ul of appropriate serial dilutions of boronic acid or control antimalarial compounds in DMSO. Control wells contained DMSO only. Following incubation in sealed, humidified gassed chambers at 37°C for 96 h to allow the parasites to undergo two entire cycles of erythrocytic growth, cells were fixed, stained with SYBR green and analysed by flow cytometry on a BD FACSVerse™ using BD FACSuite™ software. Data were analysed using FlowJo software. EC50 values and statistical data were determined from dose-response curves generated using GraphPad Prism 10 (GraphPad Software).

In series [3] the test system is P. falciparum line 1AC5 (8-10-fold reduced PfSUB1). Briefly: Parasite growth assay, PfSUB1 knock-down 1AC5 line. Conditions: Plasmodium falciparum, 96 h, read-out: EC50 parasite growth, 1AC5 line. Format: cell-based, Plasmodium falciparum.
Description: The DiCre-expressing P. falciparum line B11 (derived from a 3D7 background) has been described in full previously.[45] To generate a mutant line selectively expressing reduced levels of PfSUB1, we exploited the anhydrotetracycline (aTc)-inducible TetR aptamer system described by Niles and colleagues[46] and subsequently adapted by Rajaram et al.[47] Briefly, the B11 line was first modified by the incorporation into the genomic Pfs47 locus of a cassette for constitutive expression of a TetR-DOZI fusion protein. The 3’ flanking region of the SUB1 gene was then modified by incorporation of 10 Tet repressor-binding aptamers, following by limiting dilution cloning to obtain a genetically homogenous line called 1AC5. […] Complete details of the characterization of this parasite line will be provided in a separate manuscript.
as §1

The subject of another series is HepG2 cells. Description: Mammalian cell cytotoxicity assay (resazurin). Format: cell-based. Conditions: HepG2, 48 h treatment, resazurin; triplicate; tested up to 30 μM (1a), 200 μM (4c), 150 μM (tipifarnib). As to the method:
HepG2 cells were cultured in Dulbecco’s Modified Eagle Medium with F12 GlutaMAX (DMEM/F12 GlutaMAX) (Gibco) supplemented with 10% (v/v) heat-inactivated foetal calf serum (FCS), 1% L-glutamine and 1% penicillin-streptomycin (10,000 U/ml), and maintained in a humidified 5% CO2 incubator at 37°C. The culture medium was changed every 2-3 days and cells were passaged when a confluency of 75-80% was reached. At passage 2 or above, HepG2 cells were harvested using 0.25% trypsin-0.53 mM EDTA (Gibco). Cell counts and cell viability were determined by an automated cell counting machine (vi-CELL, Beckman) and seeded at a density of 1x10^4-5x10^5 cells per well in a transparent flat-bottom 96-well plate (Corning), and maintained in a humidified 5% CO2 incubator at 37°C. […] As a vehicle control, 1% DMSO was used. After 48 hs, media was removed and replaced with 100 μl media containing 10% resazurin solution (Invitrogen) and incubated for 4 h at 37°C in 5% CO2. After 4 h, the solution was transferred to an opaque 96-well plate (Corning) to measure reduction of resazurin to resorufin using a SpectraMax M5 microplate reader (Molecular Devices LLC) (ex. 560 nm, em. 590 nm). Cells without treatment compounds were used to determine 100% viability. Cell viability was determined by measuring fluorescence as a % of solvent control. Concentration viability response curves, CC50 values, mean CC50 value and standard error were generated using GraphPad Prism 10 (GraphPad Software).

Structures are written as SMILES. Like-named read-outs stand apart in the source and are kept apart here.

T1 sequence (Q8I0V0 218-688): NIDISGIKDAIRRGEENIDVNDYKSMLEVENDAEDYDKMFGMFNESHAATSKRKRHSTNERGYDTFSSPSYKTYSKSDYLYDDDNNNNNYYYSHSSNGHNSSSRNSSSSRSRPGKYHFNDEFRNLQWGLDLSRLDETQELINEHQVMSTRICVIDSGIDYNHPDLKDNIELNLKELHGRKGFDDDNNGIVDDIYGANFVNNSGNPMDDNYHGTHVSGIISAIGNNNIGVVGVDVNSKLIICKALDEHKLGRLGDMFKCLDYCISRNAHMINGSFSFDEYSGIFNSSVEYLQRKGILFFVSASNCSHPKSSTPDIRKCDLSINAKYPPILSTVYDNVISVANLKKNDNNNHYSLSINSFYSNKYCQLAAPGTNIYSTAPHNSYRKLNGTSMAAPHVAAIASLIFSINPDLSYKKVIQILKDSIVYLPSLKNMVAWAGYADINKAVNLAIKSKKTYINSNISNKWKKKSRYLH

With `CC[C@H](C)[C@H](NC(=O)[C@@H](NC(=O)c1cccc(-c2ccccc2)n1)C1CCCC1)C(=O)NCC(=O)N[C@H]1CCC(=O)OB1O` [4b, N-((S)-1-cyclopentyl-2-(((2S,3S)-1-((2-(((R)-2-hydroxy-6-oxo-1,2-oxaborinan-3-yl)amino)-2-oxoethyl)amino)-3-methyl-1-oxopentan-2-yl)amino)-2-oxoethyl)-6-phenylpicolinamide], the IC50 in series [1] was found to be 13 ± 0.6 nM; in series [2], 160 ± 10 nM.

For the molecule `C[C@H]1[C@H](OC(=O)CCC(=O)O)O[C@@H]2O[C@@]3(C)CC[C@H]4[C@H](C)CC[C@@H]1[C@@]24OO3` [Artesunate, artesunate, reference compound], the EC50 in the series on P. falciparum line B11 (2 erythrocytic cycles, SYBR green flow cytometry, triplicate, 95% confidence interval in parentheses) is 3.7 nM; in series [3], 4.87 nM.

Turning to `CCN(CC)CCCC(C)Nc1ccnc2cc(Cl)ccc12` (centres unmarked) [CQ, chloroquine, reference compound], the EC50 in the series with P. falciparum line B11 stood at 5.36 nM; in series [3], 5.74 nM.

With `Cn1cncc1[C@@](N)(c1ccc(Cl)cc1)c1ccc2c(c1)c(-c1cccc(Cl)c1)cc(=O)n2C` [Tipifarnib, reference compound], the “CC50 (concentration that reduced cell viability by 50%)” value with HepG2 cells is 30 µM.

For the molecule `CC[C@H](C)[C@H](NC(=O)[C@@H](NC(=O)c1ccc2ccccc2n1)C1CCCC1)C(=O)NCC(=O)N[C@@H](C)B(O)O` [3a, ((3S,6S,12R)-6-((S)-sec-butyl)-3-cyclopentyl-1,4,7,10-tetraoxo-1-(quinolin-2-yl)-2,5,8,11-tetraazatridecan-12-yl)boronic acid], the IC50 was found to be 9.5 ± 0.6 nM in series [1] and 6 ± 0.5 nM in series [2].

As for `CC[C@H](C)[C@H](NC(=O)[C@@H](NC(=O)c1ccc2ccccc2n1)C1CCCC1)C(=O)NCC(=O)N[C@H]1CCC(=O)OB1O` [4a, N-((S)-1-cyclopentyl-2-(((2S,3S)-1-((2-(((R)-2-hydroxy-6-oxo-1,2-oxaborinan-3-yl)amino)-2-oxoethyl)amino)-3-methyl-1-oxopentan-2-yl)amino)-2-oxoethyl) quinoline-2-carboxamide], the IC50 amounted to 36.1 ± 2.4 nM in series [1] and 410 ± 5 nM in series [2].

Consider `CC[C@H](C)[C@H](NC(=O)[C@@H](NCc1ccccc1)C1CCCC1)C(=O)NCC(=O)N[C@@H](C)B(O)O` [3i, ((3S,6S,12R)-6-((S)-sec-butyl)-3-cyclopentyl-4,7,10-trioxo-1-phenyl-2,5,8,11-tetra-azatridecan-12-yl)boronic acid], for which the IC50 in series [1] turned out to be 23.2 ± 0.3 nM.

For `CC[C@H](C)[C@H](NC(=O)[C@@H](NC(C)=O)C1CCCC1)C(=O)NCC(=O)N[C@@H](C)B(O)O` [2f, ((2R,8S,11S)-8-((S)-sec-butyl)-11-cyclopentyl-4,7,10,13-tetraoxo-3,6,9,12-tetraaza-tetradecan-2-yl)boronic acid], in series [1], the IC50 was found to be 5.4 ± 0.1 nM.

For the molecule `CC(=O)N[C@H](C(=O)N[C@H](C(=O)NCC(=O)N[C@@H](C)B(O)O)[C@@H](C)O)C1CCCC1` [1b], in series [2], the IC50 was 35.4 ± 1.7 nM.

Regarding `CC(C)C[C@H](NC(=O)[C@H](CCc1ccccc1)NC(=O)CN1CCOCC1)C(=O)N[C@@H](Cc1ccccc1)C(=O)N[C@@H](CC(C)C)C(=O)[C@@]1(C)CO1` [carfilzomib, reference compound], the “inhibition of rPfSUB1 activity at 1 μM” value in series [1] (1 μM final concentration, typical of duplicate assays) was “lack of inhibition”.

As to `CC[C@H](C)[C@H](NC(=O)[C@@H](NCc1ccccn1)C1CCCC1)C(=O)NCC(=O)N[C@@H](C)B(O)O` [3j, ((3S,6S,12R)-6-((S)-sec-butyl)-3-cyclopentyl-4,7,10-trioxo-1-(pyridin-2-yl)-2,5,8,11-tetraazatridecan-12-yl)boronic acid], the IC50 in series [1] came out at 71 ± 6.8 nM.

With `CC(=O)N[C@H](C(=O)N[C@@H](CC1CCCCC1)C(=O)NCC(=O)N[C@@H](C)B(O)O)C1CCCC1` [2d, ((2R,8S,11S)-8-(cyclohexylmethyl)-11-cyclopentyl-4,7,10,13-tetraoxo-3,6,9,12-tetra-azatetradecan-2-yl)boronic acid], in series [1], the IC50 is 6.7 ± 0.3 nM.

As for `CC[C@H](C)[C@H](NC(=O)[C@@H](NC(=O)c1cccc(-c2ccccc2)n1)C1CCCC1)C(=O)NCC(=O)N[C@@H](C)B(O)O` [3b, ((3S,6S,12R)-6-((S)-sec-butyl)-3-cyclopentyl-1,4,7,10-tetraoxo-1-(6-phenylpyridin-2-yl)-2,5,8,11-tetraazatridecan-12-yl)boronic acid], the IC50 in series [1] was 9.3 ± 0.2 nM; in series [2] it was 7 ± 0.1 nM.

On to `CC[C@H](C)[C@H](NC(=O)[C@@H](NC(=O)C(C)(C)C)C1CCCC1)C(=O)NCC(=O)N[C@@H](C)B(O)O` [3f, ((2R,8S,11S)-8-((S)-sec-butyl)-11-cyclopentyl-14,14-dimethyl-4,7,10,13-tetraoxo-3,6,9,12-tetraazapentadecan-2-yl)boronic acid], for which, in series [1], the IC50 came to 3.9 ± 0.3 nM.
